Assay results reported in a melting point compilation (Tetko et al.; mined from patent text by program, amines drawn as free bases though some values may be those of a salt).

Row | melting point [°C] | SMILES
1 | 93 to 94 | Clc1ccccc1-c1nc(-c2ccccn2)no1
2 | 79 to 81 | C=C[C@@H]1Oc2ccccc2[C@H]1CC(=O)O (relative stereo)
3 | 115 | CC1(C)OC(=O)c2c(cccc2OS(=O)(=O)C(F)(F)F)O1
4 | 141 to 143 | CC(C)(C)OC(=O)n1cc(C(=O)C2CSC(c3cccnc3)N2C(N)=O)c2ccccc21 (centres undefined)
5 | 143 to 145 | O=c1c(-c2ccccc2)c(-c2ccccc2)oc2cc(OCC3CO3)ccc12 (centres undefined)
6 | 207 to 215 | CN(C)S(=O)(=O)n1c(N)nc2ccc(C(=CCl)c3ccccc3)cc21
7 | 243 | Cc1cc(-c2cc(C(F)(F)F)n3ncc(C(=O)O)c3n2)ccc1Cl
8 | 145 to 147 | CN(CCc1ccccc1)C(=O)C(O)C(O)c1ccccc1 (centres undefined)
9 | 146 | CC(NC(=O)OCc1ccccc1)NC(=O)C1C(C)(C)CCC1(C)C (centres undefined)
10 | 88 to 90 | CCOC(=O)C(=Cc1cscc1OC)N=[N+]=[N-]
11 | 118 to 121 | O=C(Nc1ccc(S(=O)(=O)C(F)(F)F)cc1)Nn1cnc2ccccc2c1=O
12 | 186 to 188 | CCOC(=O)Cn1c(=O)c(-c2ccccc2Cl)cc2cnc(NC3C4CN(Cc5ccccc5)CC43)nc21 (centres undefined)
13 | 190 | COc1ccc(CN(C(=O)C2CCCc3c(O)cccc32)c2ccc(C(C)C)cc2)c(OC)n1 (centres undefined)
14 | 180 to 182 | COC(=O)C1=C(COCC(C)n2c(C)nc(C)c2C)Nc2c(c(=O)n(C)c(=O)n2C)C1c1ccccc1Cl (centres undefined)

The remaining lines, values behind:

Row | SMILES | melting point [°C]
15 | CN1C(=O)C(NC(=O)Nc2ccccc2Cl)N=C(c2ccccc2)c2ccccc21 (centres undefined) | 212 to 214
16 | O=C(O)COc1ccc(SCc2ccc(OCc3ccc(F)cc3F)cc2)c2c1CCC2 | 158 to 160
17 | CNC(=O)c1cccc(C)c1Nc1nc(Nc2ccc3c(c2)N(CCOC)C(=O)CCC3)ncc1Cl | 185 to 187
18 | CCNC(=S)N(CC)c1ccc(Cl)nc1 | 84 to 86
19 | CC(C)c1nc(CNC(=O)C(F)(F)F)n(C)c1Sc1cc(Cl)cc(Cl)c1 | 157 to 158
20 | CC(=O)Nc1nc(O)c2cc(I)cnc2n1 | > 280
21 | N#CSc1cnn(-c2nc(F)c(C(F)(F)F)cc2Cl)c1N | 109 to 114
22 | COc1ccc2[nH]c(SCc3ncc(C)c(OC)c3C)nc2c1 | 120 to 121
23 | CCc1nc2c([nH]1)c(=S)n(CC)c(=O)n2CC(C)CC (centres undefined) | 115 to 117
24 | Oc1ccc(Nc2cc(-c3cn(C(c4ccccc4)(c4ccccc4)c4ccccc4)nc3-c3ccccn3)ccn2)cc1 | 198
25 | COc1cc2cnnc(N3CCCC(CO)C3)c2cc1OC (centres undefined) | 162 to 165
26 | Cc1ncccc1Cn1nnnc1-c1cccc(Cl)c1Cl | 121 to 122
27 | CCOC(=O)c1c(Nc2c(C)cc(Br)cc2C)n[nH]c1C | 168 to 196
28 | COc1cc(N=CN(C)C)c(Cl)cc1C(=O)NC1CN2CCC1CC2 (centres undefined) | 178 to 180
29 | N#Cc1ccc(Oc2ccc(C#N)cc2C#N)cc1 | 222 to 223
30 | Cc1c(N)c(C)c2c(-c3ccc(C4CCCCC4)cc3)coc2c1C | 139 to 140
31 | CN(C)Cc1ccc(CSCCNC2=NS(=O)N=C2N)o1 (centres undefined) | 139 to 142
32 | COc1cc2nc(N)nc(-c3ccc(Br)cc3CO)c2cc1OC | 222 to 223
33 | CC(=O)c1nn(CCOS(C)(=O)=O)cc1C | 108 to 109
34 | NS(=O)(=O)c1cc(S(N)(=O)=O)c(C(Cl)=C(Cl)Cl)cc1NCc1ccco1 | 155
35 | CC(C)OC(=O)c1cc(-c2ccncc2)sc1-c1ccncc1 | 139 to 142
36 | COc1ccc(NC(=O)N2CCN(CCc3ccc(-c4cccc(N)n4)cc3)CC2)cc1 | 182 to 184
37 | COc1ccc2c3cc(C)ccc3n(CC3CCCCC3)c2c1 | 136 to 137
38 | O=P(O)(O)CCCCC(F)(F)C(F)(F)C(F)(F)C(F)(F)F | 123 to 124
39 | Nc1nc(N)c2c(I)nn(C3CC(O)C(CO)O3)c2n1 (centres undefined) | 154
